≈ marks a conversion by molar mass, not a printed value.
What was measured:
Format in all cases: cell-based
[1] = tested on: Escherichia coli 25922; assay: Broth microdilution, E. coli ATCC 25922; conditions: 24 h, 37 °C
Text: Compounds 3a–h were examined in accordance with the Clinical Laboratory Standards Institute (CLSI) recommendations, by means of the broth microdilution method, against gram-positive bacteria (Staphylococcus aureus 25923, Staphylococcus aureus 29213, Staphylococcus aureus 43300, Enterococcus faecalis 29212) and gram-negative bacteria (Escherichia coli 25922, Klebsiella pneumoniae 13883, Pseudomonas aeruginosa 27853) belonging to the ATCC collection, using levofloxacin as a reference drug. Table 3 lists the results, expressed as MIC (µg/mL). […] The lack of activity observed for compound 3d could be conceivably due to its poor solubility in the culture medium containing the inoculum.
Following the recommendations of the CLSI (Clinical and Laboratory Standards Institute, 2012), the broth microdilution method was used to determine the in vitro minimum inhibitory concentrations (MICs, µg/mL).. The concentration of the investigated compounds was set to its highest value to create stock solutions. Then, the stock solutions were diluted 1:10 with Cation-Adjusted Mueller Hinton Broth (Oxoid, Milan, Italy). After that, a series of concentrations from 512 µg/mL to […] were obtained in the wells by performing two-fold serial dilutions in the appropriate test medium. The diluent used to create the stock solution was 100% DMSO. We used the following bacterial strains from the ATCC collection that were available as freeze-dried discs: gram-positive strains such as S. aureus ATCC 25923, 29213, and 43300, and E. faecalis ATCC 29212, and gram-negative ones such as E. coli ATCC 25922, K. pneuomoniae ATCC 13883, and P. aeruginosa ATCC 27853. To preserve the purity of cultures and to allow their reproducibility, cryovials of all microbial strains were set up in the medium and stored at −80 °C. Mueller Hinton Broth (MHB) was used to prepare pre-cultures of each bacterial strain, which were then incubated for 3–5 h at 37 °C. In accordance with CLSI procedure M7-A9, the turbidity of the bacterial cell suspension was calibrated to 0.5 McFarland Standard using a spectrophotometric approach (OD625 nm 0.08–0.10). The standardized suspension was then further diluted (1:100) with MHB to reach 1–2 × 10^6 CFU/mL. A 200 µL aliquot of the final inoculum was inserted into each well. As a control for growth, several wells containing only inoculated broth were prepared. The plates were incubated at 37 °C for 24 h, and the MIC values were calculated as the lowest concentration of compounds at which there was no optically detectable bacteria growth. Each experiment was carried out in duplicate and repeated twice to determine the MICs. Levofloxacin served as the study’s standard reference antibiotic. Additionally, the antibacterial activity of DMSO alone (used as a diluent for the investigated compounds) was examined; therefore, volumes of this solvent with a concentration of less than 5% were utilized throughout the experimentation.

[2] = tested on: Candida parapsilosis 22019; assay: Antifungal microdilution, C. parapsilosis ATCC 22019; conditions: microdilution CLSI M27-A3, 48 h, 37 °C, read-out: MIC C.p. 22019
Protocol: (§1) In accordance with CLSI guidelines, compounds 3a–h were tested against a variety of fungal strains (Candida albicans 10231, Candida albicans 90028, Candida glabrata 15126, and Candida parapsilosis 22019) belonging to the ATCC collection. Amphotericin B was utilized as a reference drug. A similar trend of results, or even better than that obtained against bacteria, was assessed against fungal strains. […] Also, in this case, compound 3h emerged as the best of the series, with MICs of 16 μg/mL against Candida glabrata and Candida parapsilosis strains and 32 μg/mL against Candida albicans strains.
(§2) A microdilution technique described by the Clinical and Laboratory Standards Institute (CLSI, M27-A3) was used to assess the antifungal activity. The following fungal strains, belonging to the ATCC collection and available as freeze-dried discs, were used: C. albicans ATCC 10231, C. albicans ATCC 90028, C. glabrata ATCC 15126, and C. parapsilosis ATCC 22019. Stock solutions were prepared and preserved with purity as previously described for the antibacterial studies. Each yeast strain’s pre-cultures were made in Sabouraud broth (SAB) and allowed to grow until they stopped at 37 °C. By using a spectrophotometric technique (530 nm, range 0.12–0.15), the turbidity of the yeast stock suspension was calibrated to 0.5 McFarland Standard. Next, the standardized suspension was diluted first at 1:50 with SAB and then at 1:20 in the same medium to have […]. A total of 100 µL of inoculum was seeded into each well. As a control for growth, several wells containing only inoculated broth were prepared. The plates were incubated for 48 h at 37 °C, and the MIC values were calculated as the final well with no fungal growth. […] MIC values were observed based on the absence of fungal growth in the final well. The MICs were calculated by conducting the antifungal test three times in duplicate. As a control, amphotericin B was used.

[3] = tested on: Candida glabrata 15126; assay: Antifungal microdilution, C. glabrata ATCC 15126; conditions: Nakaseomyces glabratus, microdilution CLSI M27-A3, 48 h, 37 °C, read-out: MIC C.g. 15126
Protocol: as §1, §2

| Compound | MIC [1] | MIC [2] | MIC [3] |
| --- | --- | --- | --- |
| O=C1c2ccccc2C(=O)N1c1nc2ccccc2s1 [3a, 2-(1,3-benzothiazol-2-yl)-1H-isoindole-1,3(2H)-dione] | 64 µg/mL (≈ 228 µM) | 32 µg/mL (≈ 114 µM) | 32 µg/mL (≈ 114 µM) |
| COc1cc2nc(N3C(=O)c4ccccc4C3=O)sc2cc1OC [3f, 2-[5,6-Dimethoxy-1,3-benzothiazol-2-yl]-1H-isoindole-1,3(2H)-dione] | 32 µg/mL (≈ 94 µM) | 32 µg/mL (≈ 94 µM) | 32 µg/mL (≈ 94 µM) |
| COc1ccc2nc(N3C(=O)c4ccccc4C3=O)sc2c1 [3e, 2-[6-Methoxy-1,3-benzothiazol-2-yl]-1H-isoindole-1,3(2H)-dione] | 64 µg/mL (≈ 206 µM) | 32 µg/mL (≈ 103 µM) | 64 µg/mL (≈ 206 µM) |
| O=C1c2ccccc2C(=O)N1c1nc2ccc(Oc3ccccc3)cc2s1 [3h, 2-[6-Phenoxy-1,3-benzothiazol-2-yl]-1H-isoindole-1,3(2H)-dione] | 32 µg/mL (≈ 85.9 µM) | 16 µg/mL (≈ 43 µM) | 16 µg/mL (≈ 43 µM) |
| O=C1c2ccccc2C(=O)N1c1nc2ccc(C(F)(F)F)cc2s1 [3c, 2-[6-Trifluoromethyl-1,3-benzothiazol-2-yl]-1H-isoindole-1,3(2H)-dione] | 128 µg/mL (≈ 367 µM) | 64 µg/mL (≈ 184 µM) | 64 µg/mL (≈ 184 µM) |
| Cc1ccc2nc(N3C(=O)c4ccccc4C3=O)sc2c1 [3d, 2-[6-Methyl-1,3-benzothiazol-2-yl]-1H-isoindole-1,3(2H)-dione] | > 512 µg/mL | > 512 µg/mL | > 512 µg/mL |
| O=C1c2ccccc2C(=O)N1c1nc2ccc(F)cc2s1 [3b, 2-(6-Fluoro-1,3-benzothiazol-2-yl)-1H-isoindole-1,3(2H)-dione] | 64 µg/mL (≈ 215 µM) | 32 µg/mL (≈ 107 µM) | 32 µg/mL (≈ 107 µM) |
| O=C1c2ccccc2C(=O)N1c1nc2ccc(O)cc2s1 [3g, 2-[6-Hydroxy-1,3-benzothiazol-2-yl]-1H-isoindole-1,3(2H)-dione] | 64 µg/mL (≈ 216 µM) | 32 µg/mL (≈ 108 µM) | 32 µg/mL (≈ 108 µM) |
